Here are results for 55 compounds from US20050234066A1, “Alpha substituted carboxylic acids” (Agouron Pharmaceuticals, Inc., priority 2004, published 2005).

Assay [1] concerns the target T1, PPAR-γ (Homo sapiens, UniProt P37231).
T1 sequence (P37231 1-505): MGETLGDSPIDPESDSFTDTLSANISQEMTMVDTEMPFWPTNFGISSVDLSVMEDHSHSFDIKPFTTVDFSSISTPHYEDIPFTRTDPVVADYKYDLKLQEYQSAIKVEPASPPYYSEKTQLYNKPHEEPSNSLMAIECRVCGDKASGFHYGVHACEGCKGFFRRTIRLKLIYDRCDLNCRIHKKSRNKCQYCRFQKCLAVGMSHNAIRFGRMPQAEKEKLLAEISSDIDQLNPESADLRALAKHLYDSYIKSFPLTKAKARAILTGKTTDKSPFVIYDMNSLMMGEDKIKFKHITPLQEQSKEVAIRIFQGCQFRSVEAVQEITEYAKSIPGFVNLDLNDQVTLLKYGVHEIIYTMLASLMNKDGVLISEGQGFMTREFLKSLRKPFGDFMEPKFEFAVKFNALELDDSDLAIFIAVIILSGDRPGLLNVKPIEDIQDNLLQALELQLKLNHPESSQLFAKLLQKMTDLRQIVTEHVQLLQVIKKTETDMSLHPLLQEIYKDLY
As to the kind of experiment: Scintillation Proximity Assay (SPA), displacement of 3H labeled darglitazone. The class given is binding. The conditions noted are these: 3H darglitazone displacement. On the technique in general: Scintillation proximity formats need no separation of bound from free tracer.
Source text: (§1) Scintillatian Proximity Assay (SPA) Assays
(§2) In the SPA assay, 3H labeled darglitazone (for PPAR-γ) or GW2331 (for PPAR-α) is bound to the PPAR protein captured on SPA polylysine beads and generates radioactive count signal that can be detected by TopCounts (Packard). The PPAR-bound 3H labeled ligand can be displaced by an unlabeled compound. The Ki of the compound can be then determined by the extent of displacement at various compound concentrations. Reagents: • SPA polylysine beads, which can be purchased from Amersham Bioscience. • H labeled Darglitazone for PPAR-γ. • H labeled GW2331 for PPAR-α. • PPAR proteins. • Buffer—PBS, 10% glycerol, 14 mM beta-mercaptoethanol.

The target of assay [2] is T2, PPAR-α (Homo sapiens, UniProt Q07869).
T2 sequence (Q07869 1-468): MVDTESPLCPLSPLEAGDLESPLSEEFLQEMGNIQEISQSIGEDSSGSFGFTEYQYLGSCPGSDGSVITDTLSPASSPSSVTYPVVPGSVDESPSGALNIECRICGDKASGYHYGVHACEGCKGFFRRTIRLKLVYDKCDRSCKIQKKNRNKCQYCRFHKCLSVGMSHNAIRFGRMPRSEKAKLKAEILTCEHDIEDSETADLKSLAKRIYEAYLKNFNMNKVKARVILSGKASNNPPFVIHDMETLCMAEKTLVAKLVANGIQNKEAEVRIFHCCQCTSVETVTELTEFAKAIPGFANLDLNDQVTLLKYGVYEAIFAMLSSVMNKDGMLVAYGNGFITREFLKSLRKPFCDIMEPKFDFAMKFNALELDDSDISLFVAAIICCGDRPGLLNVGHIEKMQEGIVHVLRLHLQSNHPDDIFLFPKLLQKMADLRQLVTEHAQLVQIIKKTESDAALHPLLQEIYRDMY
Kind of assay: Scintillation Proximity Assay (SPA), displacement of 3H labeled GW2331. The class given is binding. The conditions noted are these: 3H GW2331 displacement.
Source text: as §1, §2

Read-outs that look alike come from different tables or passages of the source.

The Ki is a dissociation constant, usually derived from enzyme kinetics or from competition with a known ligand. With `Cc1nn(-c2ccccc2)nc1COc1cccc(-c2cccc(OC3(C(=O)O)CCC3)c2)c1` [Example A-18], the Ki in assay [1] (read-out: PPAR-gamma Ki) was 1700 nM; in assay [2] (read-out: PPAR-alpha Ki), 14000 nM.
Regarding `COC(Cc1ccc(OCCc2ccc(OS(C)(=O)=O)cc2)nc1)C(=O)O` [Example D-12], in assay [1] (read-out: PPAR-gamma Ki), the Ki is 8100 nM.
Consider `Cc1oc(-c2ccccc2)nc1CCOc1ccc(CC2(c3nnn[nH]3)CCCO2)cn1` (stereo not drawn) [Example C-95, 2-[2-(5-Methyl-2-phenyl-oxazol-4-yl)-ethoxy]-5-[2-(1H-tetrazol-5-yl)-tetrahydro-furan-2-ylmethyl]-pyridine], for which the Ki in assay [1] (read-out: PPAR-gamma Ki) stood at 970 nM; in assay [2] (read-out: PPAR-alpha Ki), 8600 nM.
In the case of `COC(C)(Cc1ccc(OCCCc2nc(-c3ccccc3)oc2C)nc1)C(=O)O` [Example D-27], the Ki in assay [1] (read-out: PPAR-gamma Ki) was found to be 7800 nM.
`CCC(Oc1cccc(CNC(=O)OCCc2nc(-c3ccccc3)oc2C)c1)C(=O)O` (stereo not drawn) [Example B-13]: in assay [2] (read-out: PPAR-alpha Ki), the Ki amounted to 9000 nM.
For `CCOC(Cc1ccc(OCCc2ccc(OS(=O)(=O)CC)cc2)nc1)C(=O)O` [Example D-18], the Ki stood at 450 nM in assay [1] (read-out: PPAR-gamma Ki) and 620 nM in assay [2] (read-out: PPAR-alpha Ki).
On to `CC(C)(Oc1cccc(CNC(=O)OCc2cccc(Oc3ccccc3)c2)c1)C(=O)O` [Example B-10], for which the Ki in assay [1] (read-out: PPAR-gamma Ki) was found to be 170 nM; in assay [2] (read-out: PPAR-alpha Ki), 190 nM.
As for `Cc1oc(-c2ccccc2)nc1COC(=O)NCc1ccc(OC(C)(C)C(=O)O)cc1` [Example B-08], the figures for the Ki in assay [1] (read-out: PPAR-gamma Ki) and in assay [2] (read-out: PPAR-alpha Ki) were 480 nM and 3100 nM, respectively.
`Cc1oc(-c2ccccc2)nc1COc1ccc2cc(CC3(C(=O)O)CCCO3)ccc2c1` (stereo not drawn) [Example C-93]: the figures for the Ki in assay [1] (read-out: PPAR-gamma Ki) and in assay [2] (read-out: PPAR-alpha Ki) were 11 nM and 300 nM, respectively.
Taken in the same sequence, the figures for `O=C(O)C1(Cc2ccc(OCCc3ccc(-c4ccc5c(c4)OCC5)cc3)cc2)CCC1` [Example C-12] were 1600 nM and 9400 nM.
Consider `Cc1oc(-c2ccc(C(F)(F)F)c(F)c2)nc1CCOc1ccc(CC2(C(=O)O)CCCO2)cc1` (stereo not drawn) [Example C-82], for which the Ki in assay [1] (read-out: PPAR-gamma Ki) is 16 nM.
As for `COC(C)(Cc1ccc(OCCc2nc(-c3ccccc3)oc2C)nc1)C(=O)O` [Example D-35], the Ki in assay [2] (read-out: PPAR-alpha Ki) stood at 330 nM.
As to `O=C(O)C1(Cc2ccc(OCCc3ccc(-c4cccc(OC(F)(F)F)c4)cc3)cc2)CCC1` [Example C-09], the Ki stood at 1400 nM in assay [1] (read-out: PPAR-gamma Ki) and 4600 nM in assay [2] (read-out: PPAR-alpha Ki).
Taken in the same sequence, the figures for `Cc1oc(-c2ccc(C(F)(F)F)cc2)nc1CCOc1ccc(CC2(C(=O)O)CCC2)cc1` [Example C-33] were 50 nM and 10 nM.
As to `COc1cccc(-c2nc(CCOc3ccc(CC4(C(=O)O)CCCO4)nc3)c(C)o2)c1` (stereo not drawn) [Example C-54], the Ki in assay [1] (PPAR-gamma Ki) was found to be 20 nM; in assay [2] (PPAR-alpha Ki) it was 1200 nM.
As for `COc1ccc(-c2nc(CCOc3ccc(CC(OC)C(=O)O)cn3)c(C)o2)cc1` [Example D-07], the Ki in assay [1] (read-out: PPAR-gamma Ki) is 17 nM; in assay [2] (read-out: PPAR-alpha Ki) it was 320 nM.
Taken in the same sequence, the figures for `CCOC(Cc1ccc(OCCc2ccc(OC(F)(F)F)cc2)nc1)C(=O)O` [Example D-20] were 480 nM and 840 nM.
Taken in the same sequence, the figures for `Cc1oc(-c2cccc(C(F)(F)F)c2)nc1CCOc1ccc(CC2(C(=O)O)CCC2)cc1` [Example C-30] were 33 nM and 110 nM.
Taken in the same sequence, the figures for `Cc1oc(-c2ccccc2)nc1COc1cccc(-c2cccc(OC(C)(C)C(=O)O)c2)c1` [Example A-24] were 780 nM and 18 nM.
As to `Cc1oc(-c2ccc(C(F)(F)F)cc2)nc1CCOc1ccc(CC2(C(=O)O)CCCO2)cc1` (stereo not drawn) [Example C-90], the Ki in assay [1] (read-out: PPAR-gamma Ki) amounted to 17 nM; in assay [2] (read-out: PPAR-alpha Ki) it was 110 nM.
Taken in the same sequence, the figures for `Cc1oc(-c2ccccc2)nc1CCCc1ccc(OC2(C(=O)O)CCC2)cc1` [Example C-15] were 14000 nM and 3200 nM.
In the case of `CCOC(Cc1ccc(OCCc2nc(C)sc2C)cn1)C(=O)O` [Example D-25], the Ki in assay [1] (read-out: PPAR-gamma Ki) was determined as 2900 nM.
Consider `Cn1nc(-c2ccccc2)nc1COc1cccc(-c2cccc(OC3(C(=O)O)CCC3)c2)c1` [Example A-19], for which the Ki in assay [1] (read-out: PPAR-gamma Ki) was 59 nM; in assay [2] (read-out: PPAR-alpha Ki), 700 nM.
In the case of `COC(C)(Cc1ccc(OCCc2nc(-c3cc(C)nn3C)oc2C)nc1)C(=O)O` [Example D-39], the Ki in assay [1] (read-out: PPAR-gamma Ki) is 5000 nM.
Consider `CS(=O)(=O)Oc1ccc(CCOc2ccc(CC3(C(=O)O)CCCO3)cn2)cc1` (stereo not drawn) [Example C-72], for which the Ki in assay [2] (read-out: PPAR-alpha Ki) worked out at 7100 nM.
Consider `Cc1oc(-c2ccccc2)nc1CCOc1ccc(CC2(C(=O)O)CCCC2)cc1` [Example C-02], for which, in assay [2] (read-out: PPAR-alpha Ki), the Ki came out at 390 nM.
On to `Cc1ccccc1CCOc1ccc(CC2(C(=O)O)CCCO2)cn1` (stereo not drawn) [Example C-70], for which, in assay [2] (read-out: PPAR-alpha Ki), the Ki was determined as 6400 nM.
Turning to `Cc1oc(-c2ccccc2)nc1CCCOc1ccc(CC2(C(=O)O)CCCO2)nc1` (stereo not drawn) [Example C-55], the Ki in assay [1] (read-out: PPAR-gamma Ki) came to 6000 nM.
For the compound `COC(C)(Cc1ccc(OCCc2nc(C(C)C)oc2C)nc1)C(=O)O` [Example D-38], the Ki in assay [1] (read-out: PPAR-gamma Ki) was found to be 9600 nM.
As for `CC(C)(Oc1cccc(-c2cccc(OCc3ccc(C(F)(F)F)cc3)c2)c1)C(=O)O` [Example A-02, 2-Methyl-2-[(3′-{[4-(trifluoromethyl)benzyl]oxy}1,1′-biphenyl-3-yl)oxy]propanoic acid], the Ki in assay [2] (read-out: PPAR-alpha Ki) amounted to 550 nM.
On to `CCC(Oc1cccc(CNC(=O)OCc2ccc(-c3noc(C)n3)cc2)c1)C(=O)O` (stereo not drawn) [Example B-27], for which the Ki in assay [2] (read-out: PPAR-alpha Ki) worked out at 220 nM.
Still for that read-out and setting: with `Cc1oc(-c2ccccc2)nc1CCOc1ccc(CC2(C(=O)O)CCCCC2)cn1` [Example C-47] the figure was 8300 nM; with `Cc1oc(-c2ccccc2)nc1CCOc1ccc(CC2(C(=O)O)CCCCO2)cn1` (stereo not drawn) [Example C-56], 78 nM; with `Cc1oc(-c2ccccc2)nc1CCOc1ccc(CC2(C(=O)O)CCOCC2)cc1` [Example C-05], 15000 nM.
Consider `CC(C)(C)OC(=O)Nc1ccc(CCOc2ccc(CC3(C(=O)O)CCCO3)cn2)cc1` (stereo not drawn) [Example C-73], for which the Ki in assay [1] (read-out: PPAR-gamma Ki) is 42 nM.
As to `CCC(Oc1cccc(CNC(=O)OCCc2cccc(C(F)(F)F)c2)c1)C(=O)O` (stereo not drawn) [Example B-02], the Ki in assay [2] (read-out: PPAR-alpha Ki) came out at 2200 nM.
Consider `Cc1oc(-c2ccccc2)nc1CCCOc1ccc(CC2(C(=O)O)CCCC2)cc1` [Example C-03], for which, in assay [2] (read-out: PPAR-alpha Ki), the Ki amounted to 2900 nM.
Take `Cc1oc(-c2ccccc2)nc1CCOc1ccc(C(O)C2(C(=O)O)CCC2)cn1` (stereo not drawn) [Example C-44]: in assay [2] (read-out: PPAR-alpha Ki), the Ki was found to be 36000 nM.
On the same count and under the same terms, with `Cc1oc(-c2ccc(C(F)(F)F)cc2)nc1CCOc1ccc(CC2(C(=O)O)CCCO2)cn1` (stereo not drawn) [Example C-63] the figure was 21 nM; with `CCOC(Cc1ccc(OCCCc2nc(-c3ccccc3)oc2C)cn1)C(=O)O` [Example D-24], 930 nM; with `Cc1oc(-c2ccccc2)nc1CCOc1cccc(-c2cccc(OC3(C(=O)O)CCC3)c2)n1` [Example A-07], 120 nM.
Take `Cc1oc(-c2ccccc2)nc1CCOc1ccc(CC2(C(=O)O)CCCO2)cn1` (stereo not drawn) [Example C-48, 2-({6-[2-(5-methyl-2-phenyl-1,3-oxazol-4-yl)ethoxy]pyridin-3-yl}methyl)tetrahydrofuran-2-carboxylic acid]: the Ki in assay [2] (read-out: PPAR-alpha Ki) stood at 240 nM.
Still for that read-out and setting: with `COc1ccc(-c2nc(CCOc3ccc(CC4(C(=O)O)CCCO4)cn3)c(C)o2)cc1` (stereo not drawn) [Example C-60] the figure was 65 nM.
Still for that read-out and setting: with `Cc1ccc(-c2nc(CCOc3ccc(CC4(C(=O)O)CCCO4)cn3)c(C)o2)cc1` (stereo not drawn) [Example C-66] the figure was 31 nM; with `Cc1oc(-c2ccc(Cl)cc2)nc1CCOc1ccc(CC2(C(=O)O)CCCO2)cn1` (stereo not drawn) [Example C-64], 14 nM.
In the case of `O=C(O)C1(Cc2ccc(OCCCc3nc(-c4ccccc4)oc3-c3ccccc3)cc2)CCC1` [Example C-38], the Ki in assay [1] (read-out: PPAR-gamma Ki) was 7200 nM.
As to `CCC(Oc1cccc(CNC(=O)OCCCc2nc(-c3ccccc3)oc2C)c1)C(=O)O` (stereo not drawn) [Example B-18], the Ki in assay [2] (read-out: PPAR-alpha Ki) amounted to 82 nM.
Take `CCOC(Cc1ccc(OCCc2ccc(OCCOC)cc2)nc1)C(=O)O` [Example D-16]: the Ki in assay [1] (read-out: PPAR-gamma Ki) was 6400 nM.
Take `COC(C)(Cc1ccc(OCCc2ccc(OC(F)(F)F)cc2)nc1)C(=O)O` [Example D-41]: the Ki in assay [2] (read-out: PPAR-alpha Ki) was 5900 nM.
On to `Cc1ccc(CCOc2ccc(CC3(C(=O)O)CCCO3)cn2)cc1` (stereo not drawn) [Example C-71], for which, in assay [2] (read-out: PPAR-alpha Ki), the Ki was determined as 9700 nM.
On to `Cc1nc(CCOc2ccc(CC3(C(=O)O)CCCO3)cn2)c(C)s1` (stereo not drawn) [Example C-68], for which the Ki in assay [1] (read-out: PPAR-gamma Ki) was 4200 nM.
For the compound `Cc1oc(-c2ccccc2)nc1CCCCc1ccc(CC2(C(=O)O)CCCO2)cn1` (stereo not drawn) [Example C-75], the inhibitory constant (Ki) in assay [1] (read-out: PPAR-gamma Ki) came to 820 nM.
Turning to `CC(C)(Oc1cccc(CNS(=O)(=O)c2ccc(Oc3ccccc3)cc2)c1)C(=O)O` [Example B-20], the Ki in assay [2] (read-out: PPAR-alpha Ki) was 1600 nM.
The same measure, in the same setting: with `CC(Cc1ccccc1)OC(=O)NCc1cccc(OC(C)(C)C(=O)O)c1` (stereo not drawn) [Example B-28] the figure was 7800 nM; with `Cc1oc(-c2cccc(Cl)c2)nc1CCOc1ccc(CC2(C(=O)O)CCCO2)cn1` (stereo not drawn) [Example C-59], 54 nM.
